Experimental data taken from PMC5218480 (PLoS ONE, 2017).

System: MV-4-11 cells
Experiment: Gene expression microarray analysis (Affymetrix PrimeView) and GSEA
Type: cell-based, human
Design: RFU PODN (11730768_x_at) / Fold change /veh PODN (11730768_x_at) / RFU LINC00158 (11744669_a_at) / Fold change /veh LINC00158 (11744669_a_at) / RFU DUSP10 (11751237_a_at) / Fold change /veh DUSP10 (11751237_a_at) / RFU ID3 (11757404_x_at) / Fold change /veh ID3 (11757404_x_at) / RFU PLEKHG5 (11737974_s_at) / Fold change /veh PLEKHG5 (11737974_s_at) / RFU LRRC4B (11730491_at) / Fold change /veh LRRC4B (11730491_at) / RFU GIMAP4 (11747438_a_at) / Fold change /veh GIMAP4 (11747438_a_at) / RFU KRT8 (11758183_x_at) / Fold change /veh KRT8 (11758183_x_at) / RFU CNN1 (11734310_a_at) / Fold change /veh CNN1 (11734310_a_at) / RFU VPS37D (11726825_at) / Fold change /veh VPS37D (11726825_at) / RFU C10orf10 (11716522_x_at) / Fold change /veh C10orf10 (11716522_x_at) / RFU KIR2DL2 /// KIR2DL4 /// KIR2DL5A /// KIR2DL5B /// KIR2DS1 /// KIR2DS2 /// KIR2DS3 /// KIR2DS4 /// KIR3DL3 /// KIR3DL3 /// KIR3DS1 (11738374_at) / Fold change /veh KIR2DL2 /// KIR2DL4 /// KIR2DL5A /// KIR2DL5B /// KIR2DS1 /// KIR2DS2 /// KIR2DS3 /// KIR2DS4 /// KIR3DL3 /// KIR3DL3 /// KIR3DS1 (11738374_at) / RFU C1QL1 (11718748_at) / Fold change /veh C1QL1 (11718748_at) / RFU TMPRSS4 (11747572_a_at) / Fold change /veh TMPRSS4 (11747572_a_at) / RFU HAMP (11756126_x_at) / Fold change /veh HAMP (11756126_x_at) / RFU RNFT2 (11725882_a_at) / Fold change /veh RNFT2 (11725882_a_at) / RFU NR4A2 (11747474_a_at) / Fold change /veh NR4A2 (11747474_a_at) / RFU ABCC12 (11746883_a_at) / Fold change /veh ABCC12 (11746883_a_at) / RFU TMEM136 (11760407_x_at) / Fold change /veh TMEM136 (11760407_x_at) / RFU CLDN22 /// WWC2 (11732394_at) / Fold change /veh CLDN22 /// WWC2 (11732394_at) / RFU HLA-DPB1 (11760878_x_at) / Fold change /veh HLA-DPB1 (11760878_x_at) / RFU SPINT1 (11716480_a_at) / Fold change /veh SPINT1 (11716480_a_at) / RFU GAP43 (11754022_s_at) / Fold change /veh GAP43 (11754022_s_at) / RFU A4GNT (11735810_at) / Fold change /veh A4GNT (11735810_at) / RFU PRB3 (11715151_x_at) / Fold change /veh PRB3 (11715151_x_at) / RFU TUBB4B (11761932_at) / Fold change /veh TUBB4B (11761932_at) / RFU CAPN14 (11732068_a_at) / Fold change /veh CAPN14 (11732068_a_at) / RFU TMCC2 (11721928_a_at) / Fold change /veh TMCC2 (11721928_a_at) / RFU IRGQ (11745062_a_at) / Fold change /veh IRGQ (11745062_a_at) / RFU FAM174B (11720279_a_at) / Fold change /veh FAM174B (11720279_a_at) / RFU TMPRSS4 (11748680_a_at) / Fold change /veh TMPRSS4 (11748680_a_at) / RFU FAM212B (11763350_a_at) / Fold change /veh FAM212B (11763350_a_at) / RFU PLEKHG5 (11743358_a_at) / Fold change /veh PLEKHG5 (11743358_a_at) / RFU ZSCAN30 (11745921_a_at) / Fold change /veh ZSCAN30 (11745921_a_at) / RFU CMKLR1 (11741424_a_at) / Fold change /veh CMKLR1 (11741424_a_at) / RFU LOC101060620 /// MAPK8IP1 (11723275_at) / Fold change /veh LOC101060620 /// MAPK8IP1 (11723275_at) / RFU SPTSSB (11747773_x_at) / Fold change /veh SPTSSB (11747773_x_at) / RFU PRSS12 (11739890_at) / Fold change /veh PRSS12 (11739890_at) / RFU BIN1 (11741810_x_at) / Fold change /veh BIN1 (11741810_x_at) / RFU WNT11 (11732464_a_at) / Fold change /veh WNT11 (11732464_a_at) / RFU C10orf10 (11716521_a_at) / Fold change /veh C10orf10 (11716521_a_at) / RFU C5orf56 (11738089_at) / Fold change /veh C5orf56 (11738089_at) / RFU CYB561 (11721691_x_at) / Fold change /veh CYB561 (11721691_x_at) / RFU ANKRD19P (11752326_a_at) / Fold change /veh ANKRD19P (11752326_a_at) / RFU OR2T12 /// OR2T33 /// OR2T8 (11738714_s_at) / Fold change /veh OR2T12 /// OR2T33 /// OR2T8 (11738714_s_at) / RFU VCAN (11748164_a_at) / Fold change /veh VCAN (11748164_a_at) / RFU JSRP1 (11732532_at) / Fold change /veh JSRP1 (11732532_at) / RFU KRTAP10-11 (11738290_x_at) / Fold change /veh KRTAP10-11 (11738290_x_at) / RFU MYO3A (11730013_a_at) / Fold change /veh MYO3A (11730013_a_at) / RFU EBF3 (11725865_a_at) / Fold change /veh EBF3 (11725865_a_at) / RFU CAMK2N1 (11719241_x_at) / Fold change /veh CAMK2N1 (11719241_x_at) / RFU C5orf56 (11738088_a_at) / Fold change /veh C5orf56 (11738088_a_at) / RFU OLFML3 (11715873_a_at) / Fold change /veh OLFML3 (11715873_a_at) / RFU LOC100653217 /// NTM (11731650_a_at) / Fold change /veh LOC100653217 /// NTM (11731650_a_at) / RFU MAPK11 (11762145_a_at) / Fold change /veh MAPK11 (11762145_a_at) / RFU FIZ1 (11724087_x_at) / Fold change /veh FIZ1 (11724087_x_at) / RFU OASL (11726364_x_at) / Fold change /veh OASL (11726364_x_at) / RFU SOX15 (11748057_x_at) / Fold change /veh SOX15 (11748057_x_at) / RFU CD79A (11719716_a_at) / Fold change /veh CD79A (11719716_a_at) / RFU HIST1H1D (11736915_at) / Fold change /veh HIST1H1D (11736915_at) / RFU CASKIN2 (11723855_a_at) / Fold change /veh CASKIN2 (11723855_a_at) / RFU LOC730098 (11760151_x_at) / Fold change /veh LOC730098 (11760151_x_at) / RFU OR4N2 (11742367_at) / Fold change /veh OR4N2 (11742367_at) / RFU PRRT2 (11749266_a_at) / Fold change /veh PRRT2 (11749266_a_at) / RFU SNX32 (11753110_a_at) / Fold change /veh SNX32 (11753110_a_at) / RFU CDHR5 (11726645_a_at) / Fold change /veh CDHR5 (11726645_a_at) / RFU RCAN1 (11760418_a_at) / Fold change /veh RCAN1 (11760418_a_at) / RFU FAM167A (11723789_a_at) / Fold change /veh FAM167A (11723789_a_at) / RFU FAM26E (11764081_at) / Fold change /veh FAM26E (11764081_at) / RFU ISYNA1 (11749810_s_at) / Fold change /veh ISYNA1 (11749810_s_at) / RFU ACY1 (11761880_at) / Fold change /veh ACY1 (11761880_at) / RFU 11764098_at / Fold change /veh 11764098_at / RFU SAMD14 (11745864_x_at) / Fold change /veh SAMD14 (11745864_x_at) / RFU NPB (11741838_a_at) / Fold change /veh NPB (11741838_a_at) / RFU TMPRSS6 (11731388_a_at) / Fold change /veh TMPRSS6 (11731388_a_at) / RFU KRTAP10-2 (11738614_at) / Fold change /veh KRTAP10-2 (11738614_at) / RFU ARHGAP8 /// PRR5-ARHGAP8 (11727945_x_at) / Fold change /veh ARHGAP8 /// PRR5-ARHGAP8 (11727945_x_at) / RFU KRTAP5-7 /// NADSYN1 (11734609_at) / Fold change /veh KRTAP5-7 /// NADSYN1 (11734609_at) / RFU RASL12 (11751679_a_at) / Fold change /veh RASL12 (11751679_a_at) / RFU CDKN2B (11736163_a_at) / Fold change /veh CDKN2B (11736163_a_at) / RFU PRF1 (11729649_at) / Fold change /veh PRF1 (11729649_at) / RFU, ZNF638 /// ZNF638-IT1 / Fold change vs veh, ZNF638 /// ZNF638-IT1 / RFU, PANK3 / Fold change vs veh, PANK3 / RFU, SH3YL1 / Fold change vs veh, SH3YL1 / RFU, ZEB2 / Fold change vs veh, ZEB2 / RFU, NRIP1 / Fold change vs veh, NRIP1 / RFU, PTTG1IP / Fold change vs veh, PTTG1IP / RFU, CAPN2 / Fold change vs veh, CAPN2 / RFU, MED14 / Fold change vs veh, MED14 / RFU, SNORA58 / Fold change vs veh, SNORA58 / RFU, C1orf63 / Fold change vs veh, C1orf63 / RFU, LRRFIP1 / Fold change vs veh, LRRFIP1 / RFU, NDUFAF7 / Fold change vs veh, NDUFAF7 / RFU, SLC12A2 / Fold change vs veh, SLC12A2 / RFU, IBTK / Fold change vs veh, IBTK / RFU, ESF1 / Fold change vs veh, ESF1 / Fold change vs veh, TMEM50B / RFU, TAOK1 / Fold change vs veh, TAOK1 / RFU, ACBD3 / Fold change vs veh, ACBD3 / RFU, TMA16 / Fold change vs veh, TMA16 / RFU, RWDD3 / Fold change vs veh, RWDD3 / RFU, BCAT1 / Fold change vs veh, BCAT1 / RFU, EDEM3 / Fold change vs veh, EDEM3 / RFU, TMEM33 / Fold change vs veh, TMEM33 / RFU, WDR75 / Fold change vs veh, WDR75 / RFU, AHCTF1 / Fold change vs veh, AHCTF1 / RFU, TFRC / Fold change vs veh, TFRC / RFU, ZDHHC17 / Fold change vs veh, ZDHHC17 / RFU, NOM1 / Fold change vs veh, NOM1 / RFU, ARL8B / Fold change vs veh, ARL8B / RFU, ZBTB11 / Fold change vs veh, ZBTB11 / RFU, TAMM41 / Fold change vs veh, TAMM41 / RFU, KIAA1704 /// LOC100996395 / Fold change vs veh, KIAA1704 /// LOC100996395 / RFU, ING1 / Fold change vs veh, ING1 / RFU, TRMT61B / Fold change vs veh, TRMT61B / RFU, FUBP3 / Fold change vs veh, FUBP3 / RFU, TP53 / Fold change vs veh, TP53 / RFU, TNKS2 / Fold change vs veh, TNKS2 / RFU, ZFP14 / Fold change vs veh, ZFP14 / RFU, ACTR2 / Fold change vs veh, ACTR2 / RFU, PPP3R1 / Fold change vs veh, PPP3R1 / RFU, PIK3R1 / Fold change vs veh, PIK3R1 / RFU, HNRNPA1 / Fold change vs veh, HNRNPA1 / RFU, RNF170 / Fold change vs veh, RNF170 / RFU, ZNF28 / Fold change vs veh, ZNF28 / RFU, RNGTT / Fold change vs veh, RNGTT / RFU, OGT / Fold change vs veh, OGT / RFU, BRD1 / Fold change vs veh, BRD1 / RFU, MARS / Fold change vs veh, MARS / RFU, ZNF655 / Fold change vs veh, ZNF655 / RFU, FAHD1 / Fold change vs veh, FAHD1 / RFU, BDP1 / Fold change vs veh, BDP1 / RFU, LRRCC1 / Fold change vs veh, LRRCC1 / RFU, ARID1A / Fold change vs veh, ARID1A / RFU, ZNF146 / Fold change vs veh, ZNF146 / RFU, ZNF330 / Fold change vs veh, ZNF330 / RFU, GPN3 / Fold change vs veh, GPN3 / RFU, C9orf123 / Fold change vs veh, C9orf123 / RFU, N4BP2L2 / Fold change vs veh, N4BP2L2 / RFU, ARFIP1 / Fold change vs veh, ARFIP1 / RFU, FAM179B / Fold change vs veh, FAM179B / RFU, BCL10 / Fold change vs veh, BCL10 / RFU, UHRF1BP1L / Fold change vs veh, UHRF1BP1L / RFU, BET1 / Fold change vs veh, BET1 / RFU, CNOT2 / Fold change vs veh, CNOT2 / RFU, ZNF268 / Fold change vs veh, ZNF268 / Fold change vs veh, ZNF507 / RFU, DGCR2 / Fold change vs veh, DGCR2 / RFU, WDSUB1 / Fold change vs veh, WDSUB1 / Fold change vs veh, HSP90B1 /// MIR3652 / RFU, ADSS / Fold change vs veh, ADSS / RFU, GK / Fold change vs veh, GK / RFU, ZNF148 / Fold change vs veh, ZNF148 / RFU, TAF9 / Fold change vs veh, TAF9 / RFU, SLC1A5 / Fold change vs veh, SLC1A5 / RFU, SLMO2 / Fold change vs veh, SLMO2 / RFU, ABCC4 / Fold change vs veh, ABCC4 / RFU, LOC101060439 /// RAP1B / Fold change vs veh, LOC101060439 /// RAP1B / RFU, RFX7 / Fold change vs veh, RFX7 / RFU, GTPBP10 / Fold change vs veh, GTPBP10 / RFU, CNEP1R1 / Fold change vs veh, CNEP1R1 / RFU, BIVM-ERCC5 /// ERCC5 / Fold change vs veh, BIVM-ERCC5 /// ERCC5 / RFU, ILF3 / Fold change vs veh, ILF3 / RFU 11762660_at / Fold change /veh 11762660_at / RFU VCAN (11757783_s_at) / Fold change /veh VCAN (11757783_s_at) / RFU DDX43 (11728927_at) / Fold change /veh DDX43 (11728927_at) / RFU KRT8 (11758188_x_at) / Fold change /veh KRT8 (11758188_x_at) / RFU NKD1 (11759106_at) / Fold change /veh NKD1 (11759106_at) / RFU SRD5A1 (11742802_a_at) / Fold change /veh SRD5A1 (11742802_a_at) / RFU TPSAB1 /// TPSB2 (11721975_s_at) / Fold change /veh TPSAB1 /// TPSB2 (11721975_s_at) / RFU GSTM3 (11746129_a_at) / Fold change /veh GSTM3 (11746129_a_at) / RFU IL23R (11737362_x_at) / Fold change /veh IL23R (11737362_x_at) / RFU TMEM51 (11727254_a_at) / Fold change /veh TMEM51 (11727254_a_at) / RFU PIWIL2 (11732686_x_at) / Fold change /veh PIWIL2 (11732686_x_at) / RFU ORM1 (11744905_x_at) / Fold change /veh ORM1 (11744905_x_at) / RFU CCDC152 (11743942_at) / Fold change /veh CCDC152 (11743942_at) / RFU ECM1 (11717891_a_at) / Fold change /veh ECM1 (11717891_a_at) / RFU IL23R (11748794_a_at) / Fold change /veh IL23R (11748794_a_at) / RFU TNFAIP8L3 (11732012_x_at) / Fold change /veh TNFAIP8L3 (11732012_x_at) / RFU MBOAT4 (11741988_at) / Fold change /veh MBOAT4 (11741988_at) / RFU 11764193_at / Fold change /veh 11764193_at / RFU TMEM53 (11763286_at) / Fold change /veh TMEM53 (11763286_at) / RFU MAGEB2 (11727129_at) / Fold change /veh MAGEB2 (11727129_at) / RFU TMEM200A (11744735_a_at) / Fold change /veh TMEM200A (11744735_a_at) / RFU CCDC152 (11751479_a_at) / Fold change /veh CCDC152 (11751479_a_at) / RFU FAM211A (11726209_a_at) / Fold change /veh FAM211A (11726209_a_at) / RFU RGS16 (11746705_a_at) / Fold change /veh RGS16 (11746705_a_at) / RFU VCAN (11755009_s_at) / Fold change /veh VCAN (11755009_s_at) / RFU RHOB (11743442_s_at) / Fold change /veh RHOB (11743442_s_at) / RFU RGS16 (11720943_a_at) / Fold change /veh RGS16 (11720943_a_at) / RFU RGS16 (11720944_at) / Fold change /veh RGS16 (11720944_at) / RFU, VPS4B / Fold change vs veh, VPS4B / RFU, CREB1 / Fold change vs veh, CREB1 / RFU, DNAJC13 / Fold change vs veh, DNAJC13 / RFU, GNAQ / Fold change vs veh, GNAQ / RFU, CDK5R1 / Fold change vs veh, CDK5R1 / RFU, ZRANB3 / Fold change vs veh, ZRANB3 / RFU, CUL4A / Fold change vs veh, CUL4A / RFU, CCNY / Fold change vs veh, CCNY / RFU, UFL1 / Fold change vs veh, UFL1 / RFU, COG3 / Fold change vs veh, COG3 / RFU, DIAPH2 / Fold change vs veh, DIAPH2 / RFU, SKA2 / Fold change vs veh, SKA2 / RFU, AFF3 / Fold change vs veh, AFF3 / RFU, LMF1 / Fold change vs veh, LMF1 / RFU, IPO11 / Fold change vs veh, IPO11 / RFU, DFFB / Fold change vs veh, DFFB / RFU, FOXP1 / Fold change vs veh, FOXP1 / RFU, CARD8 / Fold change vs veh, CARD8 / RFU, STRN3 / Fold change vs veh, STRN3 / RFU, ADK / Fold change vs veh, ADK / RFU, RASSF2 / Fold change vs veh, RASSF2 / RFU, WIPF1 / Fold change vs veh, WIPF1 / RFU, LARP1B / Fold change vs veh, LARP1B / RFU, RASA1 / Fold change vs veh, RASA1 / RFU, RB1 / Fold change vs veh, RB1 / RFU, PPFIA1 / Fold change vs veh, PPFIA1 / RFU, MAT2A / Fold change vs veh, MAT2A / RFU, CCT5 / Fold change vs veh, CCT5 / RFU, WDR92 / Fold change vs veh, WDR92 / RFU, CUX1 / Fold change vs veh, CUX1 / RFU, TTC7A / Fold change vs veh, TTC7A / RFU, TMEM135 / Fold change vs veh, TMEM135 / RFU, DEPTOR / Fold change vs veh, DEPTOR / RFU, CPM / Fold change vs veh, CPM / RFU, DNAJB6 / Fold change vs veh, DNAJB6 / RFU, CACNA2D3 / Fold change vs veh, CACNA2D3 / RFU, DTX4 / Fold change vs veh, DTX4 / RFU, TFCP2 / Fold change vs veh, TFCP2 / RFU, GMCL1 /// GMCL1P1 / Fold change vs veh, GMCL1 /// GMCL1P1 / RFU, AEBP2 / Fold change vs veh, AEBP2 / RFU, SNHG1 /// SNORD22 /// SNORD25 /// SNORD26 /// SNORD27 /// SNORD28 /// SNORD29 /// SNORD31 / Fold change vs veh, SNHG1 /// SNORD22 /// SNORD25 /// SNORD26 /// SNORD27 /// SNORD28 /// SNORD29 /// SNORD31 / Fold change (Aza/veh), C12orf56 (ProbeSet 11735607_a_at) / Fold change (ACY-1035/veh), C12orf56 (ProbeSet 11735607_a_at) / Fold change (Aza/veh), FGFR1OP (ProbeSet 11751329_s_at) / Fold change (ACY-1035/veh), FGFR1OP (ProbeSet 11751329_s_at) / Fold change (Aza/veh), VPS36 (ProbeSet 11739960_a_at) / Fold change (ACY-1035/veh), VPS36 (ProbeSet 11739960_a_at) / RFU SYPL1 (11715823_x_at) / Fold change /veh SYPL1 (11715823_x_at) / RFU IGFBP7 (11715501_s_at) / Fold change /veh IGFBP7 (11715501_s_at) / RFU REEP3 (11722064_at) / Fold change /veh REEP3 (11722064_at) / RFU IGLL1 (11728026_x_at) / Fold change /veh IGLL1 (11728026_x_at): dose or concentration left out as unconfirmed
Conditions: MV-4-11 cells, 48 hours

SMILES: Nc1ncn([C@@H]2O[C@H](CO)[C@@H](O)[C@H]2O)c(=O)n1 [azacitidine]
- Fold change /veh CMKLR1 (11741424_a_at): 1.02
